Measured values reported in publication PMC6209519 (Organic & biomolecular chemistry, 2018).

Assays:
chymotrypsin = assay: Enzymatic hydrolysis assay with chymotrypsin; type: in vitro ADME; details: isolated enzyme chymotrypsin
HIV-1 = details: across the strains tested, compared with 1

| Substance | IC50 (HIV-1 CZA97) [nM] | IC50 (HIV-1 SF162) [nM] | IC50 (HIV-1 MN) [nM] | IC50 (HIV-1 DU422) [nM] | % remaining after 10 mins (chymotrypsin) [%] | increase in antiviral activity relative to peptide 1 (HIV-1) [fold] |
| --- | --- | --- | --- | --- | --- | --- |
| Enfuvirtide | 941 ± 328 | 23.9 ± 2.1 | 6.5 ± 0.6 | 56 ± 1.6 |  |  |
| MTWXEWDXKIEEYTKKIEELIγKS (sidechain bridge or staple) [Peptide 4] |  |  |  |  | 57.2 |  |
| MTWEEWDKKIEEYTKKIEELIγKS [Peptide 3] |  |  |  |  | 17.6 | < 2 |
